Calls of active or inactive are those of the source. The calls are words filed in the database; no cut-off is given here.
Columns and labels:
Format in all cases: functional, organism-based
[1] = test system: Felis catus; assay: Decrease in Peroxidase activity in acinar cells of the nasal glands of cat at 8 mg/kg, iv dosed over 7 hours
[2] = test system: Felis catus; assay: Decrease in Peroxidase activity in rough endoplasmic reticulum of cat at 8 mg/kg, iv dosed over 7 hours
[3] = test system: Felis catus; assay: Effect on activity of peroxidase in cat rough endoplasmic reticulum at 7.3 mg/kg, iv administered as single dose measured after 5 hrs
[4] = test system: Felis catus; assay: Effect on activity of peroxidase in cat in rough golgi complex at 7.3 mg/kg, iv administered as single dose measured after 5 hrs; conditions: Golgi body
[5] = test system: Felis catus; assay: Effect on activity of peroxidase in cat rough endoplasmic reticulum at 7.3 mg/kg, iv administered as single dose measured after 9 hrs
[6] = test system: Felis catus; assay: Effect on localization of peroxidase in secretory granules of cat at 7.3 mg/kg, iv administered as single dose measured after 30 mins by electron microscopy
[7] = test system: Felis catus; assay: Effect on activity of peroxidase in cat acinar cells at 7.3 mg/kg, iv administered as single dose measured after 30 mins
[8] = test system: Felis catus; assay: Increase in secretory granules without peroxidase activity in cat at 7.3 mg/kg, iv administered as single dose measured after 9 hrs by electron microscopy
[9] = test system: Felis catus; assay: Effect on localization of peroxidase in rough golgi complex of cat at 7.3 mg/kg, iv administered as single dose measured after 30 mins by electron microscopy; conditions: Golgi body
[10] = test system: Felis catus; assay: Increase in electron-lucent secretory granules in cat at 7.3 mg/kg, iv administered as single dose measured after 5 hrs by electron microscopy
[11] = test system: Felis catus; assay: Effect on activity of peroxidase in cat in rough golgi complex at 7.3 mg/kg, iv administered as single dose measured after 9 hrs; conditions: Golgi body
[12] = test system: Felis catus; assay: Reduction in peroxidase-positive secretory granules in cat at 7.3 mg/kg, iv administered as single dose measured after 5 hrs by electron microscopy
[13] = test system: Felis catus; assay: Effect on localization of peroxidase in rough endoplasmic reticulum of cat at 7.3 mg/kg, iv administered as single dose measured after 30 mins by electron microscopy
[14] = test system: Felis catus; assay: Effect on distribution of peroxidase in acinar cells of cat at 0.3 mg/kg, iv dosed 10 mins before dosing of 7.3 mg/kg, iv propranolol and measured after 60 mins post ligand dose by electron microscopy
[15] = test system: Felis catus; assay: Increase in granule content containing the peroxidase reaction product discharged into acinar lumen in cat at 0.3 mg/kg, iv after 20 mins
[16] = test system: Felis catus; assay: Effect on activity of peroxidase in acinar cells of cat at 0.3 mg/kg, iv dosed 10 mins before dosing of 7.3 mg/kg, iv propranolol and measured after 60 mins post ligand dose
[17] = test system: Felis catus; assay: Effect on peroxidase reaction product in r-ER, Golgi complex, and secretory granules in acinar cells of cat at 0.3 mg/kg, iv dosed 10 mins before dosing of 7.3 mg/kg, iv propranolol and measured after 60 mins post ligand dose
[18] = test system: Felis catus; assay: Effect on distribution of peroxidase in acinar cells of cat at 0.3 mg/kg, iv dosed 10 mins before dosing of 7.3 mg/kg, iv propranolol and measured after 20 mins post ligand dose by electron microscopy
[19] = test system: Felis catus; assay: Reduction in secretion rate of electron dense peroxidase-positive granules in cat at 0.3 mg/kg, iv after 60 mins
[20] = test system: Felis catus; assay: Effect on peroxidase reaction product in r-ER, Golgi complex, and secretory granules in acinar cells of cat at 0.3 mg/kg, iv dosed 10 mins before dosing of 7.3 mg/kg, iv propranolol and measured after 20 mins post ligand dose
[21] = test system: Felis catus; assay: Effect on activity of peroxidase in acinar cells of cat at 0.3 mg/kg, iv dosed 10 mins before dosing of 7.3 mg/kg, iv propranolol and measured after 20 mins post ligand dose

With `CC(C)NCC(O)COc1cccc2ccccc12` (stereo unspecified) as the compound, how does the Activity [1] read?
Its Activity is “Active”.

What about the Activity [2] of the same compound?
Its Activity is “Active”.

And the Activity [3]?
Its Activity is “inactive”.

What about the Activity [4] of the same compound?
Its Activity is “inactive”.

What about the Activity [5] of the same compound?
Its Activity is “inactive”.

What about the Activity [6] of the same compound?
The Activity was “inactive”.

And the Activity [7]?
Its Activity is “inactive”.

And the Activity [8]?
Its Activity is “Active”.

What about the Activity [9] of the same compound?
Its Activity is “inactive”.

What about the Activity [10] of the same compound?
The Activity was “Active”.

And the Activity [11]?
The Activity was “inactive”.

What about the Activity [12] of the same compound?
The Activity was “Active”.

What about the Activity [13] of the same compound?
Its Activity is “inactive”.

With `CC(C)NCC(O)c1ccc(O)c(O)c1` (stereo unspecified) as the compound, how does the Activity [14] read?
The Activity was “inactive”.

What about the Activity [15] of the same compound?
Its Activity is “Active”.

And the Activity [16]?
The Activity was “inactive”.

What about the Activity [17] of the same compound?
Its Activity is “inactive”.

And the Activity [18]?
Its Activity is “inactive”.

And the Activity [19]?
The Activity was “Active”.

And the Activity [20]?
Its Activity is “inactive”.

What about the Activity [21] of the same compound?
The Activity was “inactive”.
